Data: patent US20260083687A1, “COMPOUNDS FOR REDUCING LACTATION AND IMPROVING HEALTH” (AHV International B.V., priority 2022, published 2026)
“And” between values parts separate entries of the source, which are not always exact repeats. Identical values can stand only once.

Test system: cows
Test: Effect of 40 ml and 80 ml oral DPD capsule vs placebo on the milk yield of cows (Example 1)
Format: in vivo, cow
Set-up: average milk drop (Difference: observed minus expected milk yield) / average milk drop (difference): unit not given here
Settings: for Milk production: 40 ml DPD oral capsule on day 13, individual cows
Procedure: 15 cows from 3 different farms were used in study 1 and 30 cows from 4 different farms were used in study 2. […] The cows are milked twice a day. The cows were housed in free stables. […] The farmers were not informed which cows were treated.
The placebo group existed of 8 cows, whereas the size of the treated group was 7 cows.
For study 2, the gelatin capsule contained 80 ml of the DPD and the gelatine capsule for the placebo group contained tap water. Nine cows were administered a single dose of DPD 7 to 14 days before the start of their dry-off period and nine cows were administered a single dose of the placebo capsule. The cows were placed randomly in the DPD or placebo group. This was done per group that was dried off at the same time for every farm individually, so that every farm had 50% of the cows in the treatment group and 50% in the control group.
On t =13 days the DPD-containing capsules and the placebo capsules were administered.
The following hypothesis was tested and compared by statistical analysis: H0 is defined as there is no difference between the relative milk production before and after treatment between administering of the DPD bolus and placebo, and H1 is defined as there is a difference between the relative milk production before and after treatment between the DPD and placebo group.
The data were processed as follows: based on the data obtained from day 0, 1, 2, 3 . . . 12 the expected milk yields on day 13, 14, […] were calculated by linear regression for each cow. On t=13 the Placebo-capsule or DPD-containing capsule were administered into the rumen. The predicted data (as if no administration of a Placebo or DPD-containing capsule has taken place) and actual milk yields after administration were compared from t=13 days and the milk drop was calculated. This was performed for all the cows in the tests.
Hereafter, the average milk drop was calculated as the difference between the observed and the expected milk yield per day, which is calculated by comparing the expected milk yields that were obtained via linear regression, and the actual milk yields, obtained after treatment with a Placebo or DPD.
The Null Hypothesis is that the difference is zero. We calculate the P-values for these differences using a permutation test (5000 samples).
The Null Hypothesis was defined that that the difference of the 6 treatment cows and Placebo cows is zero. We calculate the P-values for these differences using a permutation test (5000 samples).

CCCSSCCC [DPD, di-n-propyl disulfide]
Milk production (day 1 (before treatment)): 15.9 and 25.8
Milk production (day 2 (before treatment)): 15.3 and 31.7 and 5.9
Milk production (day 3 (before treatment)): 16 and 30.4 and −1.3
Milk production (day 4 (before treatment)): 15.6 and 29.9
Milk production (day 5 (before treatment)): 15.2 and 27.7
Milk production (day 6 (before treatment)): 14.5 and 28.4 and 23.6 and 24.5
Milk production (day 7 (before treatment)): 14.9 and 29.3 and 24 and 24.4
Milk production (day 8 (before treatment)): 13.4 and 28.1 and 22.4 and 24.6
Milk production (day 9 (before treatment)): 13.6 and 28.4 and 24.4 and 24.7
Milk production (day 10 (before treatment)): 13.8 and 27 and 23.4 and 25.3
Milk production (day 11 (before treatment)): 13.7 and 28.8 and 24.2 and 22.5
Milk production (day 12 (before treatment)): 12.9 and 27 and 21.7 and 22.2
Milk production (day 13 (day of treatment)): 12.9 and 27.7 and 23.2 and 20.4
Milk production (day 14): 12 and 26.4 and 22.2 and 22.3
Milk production (day 15): 11.4 and 23.7 and 23.1 and 20.5
Milk production (day 16): 11.4 and 21.5 and 23.7 and 24.4
Milk production (day 17): 12.8 and 25.4 and 23.1 and 22
Milk production (day 18): 10.9 and 27.5 and 23.2 and 14.8
Milk production (day 19): 11.6 and 25.7 and 22.9 and 9.8
Milk production (day 20): 10.2 and 24.8 and 22.3 and 24.3
Milk production (day 21): 9.9 and 23 and 21.3 and 25.8
effect on milk yield (40 ml DPD vs placebo): not in a significant decrease on milk yield
Mean Difference Treatment − Placebo (40 ml DPD, day 14): −0.3233 litres milk per day per cow
Significant (effect on milk yield vs placebo) (40 ml DPD, day 14): No
average milk drop (Difference: observed minus expected milk yield) (40 ml DPD, day 14): −0.226
Mean Difference Treatment − Placebo (40 ml DPD, day 15): −0.873 litres milk per day per cow
Significant (effect on milk yield vs placebo) (40 ml DPD, day 15): No
average milk drop (Difference: observed minus expected milk yield) (40 ml DPD, day 15): −0.9122
Mean Difference Treatment − Placebo (40 ml DPD, day 16): 1.599 litres milk per day per cow
Significant (effect on milk yield vs placebo) (40 ml DPD, day 16): No
average milk drop (Difference: observed minus expected milk yield) (40 ml DPD, day 16): 1.673
Mean Difference Treatment − Placebo (40 ml DPD, day 17): −0.4365 litres milk per day per cow
Significant (effect on milk yield vs placebo) (40 ml DPD, day 17): No
average milk drop (Difference: observed minus expected milk yield) (40 ml DPD, day 17): 1.201
Mean Difference Treatment − Placebo (40 ml DPD, day 18): −0.5789 litres milk per day per cow
Significant (effect on milk yield vs placebo) (40 ml DPD, day 18): No
average milk drop (Difference: observed minus expected milk yield) (40 ml DPD, day 18): 0.4719
Mean Difference Treatment − Placebo (40 ml DPD, day 19): −0.9982 litres milk per day per cow
Significant (effect on milk yield vs placebo) (40 ml DPD, day 19): No
average milk drop (Difference: observed minus expected milk yield) (40 ml DPD, day 19): −0.2714
Mean Difference Treatment − Placebo (40 ml DPD, day 20): −0.296 litres milk per day per cow
Significant (effect on milk yield vs placebo) (40 ml DPD, day 20): No
average milk drop (Difference: observed minus expected milk yield) (40 ml DPD, day 20): 1.657
Mean Difference Treatment − Placebo (40 ml DPD, day 21): 0.1722 litres milk per day per cow
Significant (effect on milk yield vs placebo) (40 ml DPD, day 21): No
average milk drop (Difference: observed minus expected milk yield) (40 ml DPD, day 21): 1.713
effect on milk yield (80 ml DPD vs placebo): significant decrease in milk yield
recovery of milk yield production (80 ml DPD, after the 3 days following treatment): recovers after this period
Mean Difference Treatment − Placebo (80 ml DPD, day 13): 0.2566 litres milk per day per cow
Significance (effect on milk yield vs placebo) (80 ml DPD, day 13): No
average milk drop (difference) (80 ml DPD, day 13): 0.3592
Mean Difference Treatment − Placebo (80 ml DPD, day 14): −4.56 litres milk per day per cow
Significance (effect on milk yield vs placebo) (80 ml DPD, day 14): Yes
average milk drop (difference) (80 ml DPD, day 14): −5.726
Mean Difference Treatment − Placebo (80 ml DPD, day 15): −6.729 litres milk per day per cow
Significance (effect on milk yield vs placebo) (80 ml DPD, day 15): Yes
average milk drop (difference) (80 ml DPD, day 15): −7.051
Mean Difference Treatment − Placebo (80 ml DPD, day 16): −4.421 litres milk per day per cow
Significance (effect on milk yield vs placebo) (80 ml DPD, day 16): Yes
average milk drop (difference) (80 ml DPD, day 16): −3.891
Mean Difference Treatment − Placebo (80 ml DPD, day 17): −0.4065 litres milk per day per cow
Significance (effect on milk yield vs placebo) (80 ml DPD, day 17): No
average milk drop (difference) (80 ml DPD, day 17): −1.8508
Mean Difference Treatment − Placebo (80 ml DPD, day 18): 0.2326 litres milk per day per cow
Significance (effect on milk yield vs placebo) (80 ml DPD, day 18): No
average milk drop (difference) (80 ml DPD, day 18): −1.4323
Mean Difference Treatment − Placebo (80 ml DPD, day 19): 0.9803 litres milk per day per cow
Significance (effect on milk yield vs placebo) (80 ml DPD, day 19): No
average milk drop (difference) (80 ml DPD, day 19): −0.1878
Mean Difference Treatment − Placebo (80 ml DPD, day 20): 1.162 litres milk per day per cow
Significance (effect on milk yield vs placebo) (80 ml DPD, day 20): No
average milk drop (difference) (80 ml DPD, day 20): 0.262
decrease of milk production compared to the placebo group (average) (80 ml DPD, next 3 days after treatment): 6 litres per day per cow
decreased milk production (DPD, day 2 after treatment): 7.7 L/day
